The target in series [1] is dipeptidyl peptidase IV (Homo sapiens, UniProt P27487). Put plainly: Action of effectors on the DP IV-catalysed hydrolysis of H-Gly-Pro-pNA. Type of series: biochemical. The settings on record: 0.4 mM H-Gly-Pro-pNA, 30° C., pH 7.6, ionic strength 0.125; for remaining activity at 10 µM / % Residual activity of DP IV in the presence of 10 μM effector: 10 μM effector; for remaining activity at 10 µM: read-out: % Residual activity of DP IV in the presence of 10 μM effector; for Ki: read-out: Effector affinity to DP IV: Ki.
Sequence of dipeptidyl peptidase IV (P27487 whole entry, species assumed): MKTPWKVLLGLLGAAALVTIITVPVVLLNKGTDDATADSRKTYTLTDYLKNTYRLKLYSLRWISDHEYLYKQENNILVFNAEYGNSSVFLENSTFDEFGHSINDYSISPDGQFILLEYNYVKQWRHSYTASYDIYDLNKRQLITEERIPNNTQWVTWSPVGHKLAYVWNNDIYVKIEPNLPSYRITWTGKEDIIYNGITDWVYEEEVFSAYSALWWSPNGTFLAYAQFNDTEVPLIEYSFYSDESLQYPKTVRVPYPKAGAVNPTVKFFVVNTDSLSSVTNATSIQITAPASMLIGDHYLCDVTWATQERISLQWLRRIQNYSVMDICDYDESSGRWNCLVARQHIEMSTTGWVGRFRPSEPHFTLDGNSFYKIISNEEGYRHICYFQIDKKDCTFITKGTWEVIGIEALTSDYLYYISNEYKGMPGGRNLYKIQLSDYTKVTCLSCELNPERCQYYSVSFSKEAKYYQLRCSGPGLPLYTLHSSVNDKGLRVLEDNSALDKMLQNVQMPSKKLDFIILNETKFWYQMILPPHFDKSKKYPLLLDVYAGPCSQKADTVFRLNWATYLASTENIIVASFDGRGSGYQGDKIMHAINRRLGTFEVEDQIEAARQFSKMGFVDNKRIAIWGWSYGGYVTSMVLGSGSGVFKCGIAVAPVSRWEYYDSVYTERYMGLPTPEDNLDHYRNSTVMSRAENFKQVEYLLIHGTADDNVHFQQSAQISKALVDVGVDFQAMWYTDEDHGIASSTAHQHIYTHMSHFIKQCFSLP

For series [2], the target named is T1, peptide transporter Pep T1 (Homo sapiens, UniProt P46059).
T1 sequence (P46059 1-708): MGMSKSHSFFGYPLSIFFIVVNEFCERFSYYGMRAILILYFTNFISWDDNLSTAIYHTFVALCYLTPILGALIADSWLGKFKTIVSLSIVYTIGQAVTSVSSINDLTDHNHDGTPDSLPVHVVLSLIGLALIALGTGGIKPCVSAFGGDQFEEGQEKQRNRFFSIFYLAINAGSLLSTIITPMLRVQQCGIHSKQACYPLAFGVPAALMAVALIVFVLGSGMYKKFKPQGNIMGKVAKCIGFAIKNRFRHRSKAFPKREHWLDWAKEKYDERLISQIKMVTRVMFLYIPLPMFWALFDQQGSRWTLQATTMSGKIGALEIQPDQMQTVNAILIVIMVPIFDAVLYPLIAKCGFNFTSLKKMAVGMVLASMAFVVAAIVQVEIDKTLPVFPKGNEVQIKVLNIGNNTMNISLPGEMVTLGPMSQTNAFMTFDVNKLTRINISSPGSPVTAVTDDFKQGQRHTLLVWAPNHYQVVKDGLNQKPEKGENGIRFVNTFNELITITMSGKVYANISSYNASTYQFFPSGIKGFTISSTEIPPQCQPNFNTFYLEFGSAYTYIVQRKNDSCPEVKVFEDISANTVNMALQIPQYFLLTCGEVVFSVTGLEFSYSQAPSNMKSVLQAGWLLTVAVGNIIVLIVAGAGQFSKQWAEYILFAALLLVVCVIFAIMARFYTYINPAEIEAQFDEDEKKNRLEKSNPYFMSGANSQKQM
Nature of the series: Transport by the peptide transporter Pep T1. Format: in vitro ADME. The settings on record: in comparison with L-threo-isoleucyl thiazolidide.

Series [3] relates to circulating blood glucose. Nature of the series: Circulating blood glucose after oral administration with synchronous glucose tolerance test. Type of series: in vivo, Wistar rat. The settings on record: for Glucose concentration in % L-allo-Ile-thiazolidide-treated: oral 20 μM, within 60 min, % based on normoglycaemic values (control 100).
Series [4] is described as follows: Testing the solubility of salts of Ile-Thia in distilled water. Format: physicochemical. The settings on record: H2Odist. The procedure: Testing the Solubility of Salts of Ile-Thia
Addition of 100 μl H2Odist.

Molecules are shown by their SMILES. Where a name gives a salt, the structure may show the parent alone.

With `NC(=O)CC(N)C(=O)N1CCCC1` (centres unmarked) [H-Asn-pyrrolidide], in series [1], the remaining activity at 10 µM came out at 83.1% and the Ki came to 12 µM.

In the case of `NC(=O)CC(N)C(=O)N1CCSC1` (centres unmarked) [H-Asn-thiazolidide], in series [1], the remaining activity at 10 µM was 47.2% and the Ki came to 3.5 µM.

Take `NC(CC(=O)NO)C(=O)N1CCCC1` (centres unmarked) [H-Asp(NHOH)-pyrrolidide]: in series [1], the remaining activity at 10 µM is 88.2% and the Ki amounted to 13 µM.

Regarding `NC(CC(=O)NO)C(=O)N1CCSC1` (centres unmarked) [H-Asp(NHOH)-thiazolidide], in series [1], the remaining activity at 10 µM amounted to 54.5% and the Ki amounted to 8.8 µM.

Take `NC(CC(=O)O)C(=O)N1CCCC1` (centres unmarked) [H-Asp-pyrrolidide]: in series [1], the remaining activity at 10 µM came to 81.6% and the Ki came out at 14 µM.

As for `NC(CC(=O)O)C(=O)N1CCSC1` (centres unmarked) [H-Asp-thiazolidide], in series [1], the remaining activity at 10 µM came to 45.6% and the Ki amounted to 2.9 µM.

As to `NC(CCC(=O)NO)C(=O)N1CCCC1` (centres unmarked) [H-Glu(NHOH)-pyrrolidide], in series [1], the “% Residual activity of DP IV in the presence of 10 μM effector” value stood at 44.9% and the Ki was 2.8 µM.

As for `NC(CCC(=O)NO)C(=O)N1CCSC1` (centres unmarked) [H-Glu(NHOH)-thiazolidide], in series [1], the remaining activity at 10 µM stood at 36.5% and the Ki turned out to be 1.7 µM.

Regarding `NC(CCC(=O)O)C(=O)N1CCSC1` (centres unmarked) [H-Glu-thiazolidide], in series [1], the remaining activity at 10 µM amounted to 25% and the Ki turned out to be 0.61 µM.

For `NC(Cc1c[nH]cn1)C(=O)N1CCCC1` (centres unmarked) [H-His-pyrrolidide], in series [1], the remaining activity at 10 µM came to 49.7% and the Ki came out at 3.5 µM.

In the case of `NC(Cc1c[nH]cn1)C(=O)N1CCSC1` (centres unmarked) [H-His-thiazolidide], in series [1], the remaining activity at 10 µM was 35.2% and the Ki came out at 1.8 µM.

Consider `CC[C@H](C)[C@H](N)C(=O)N1CC1` [H-Ile-azididide], for which, in series [1], the “% Residual activity of DP IV in the presence of 10 μM effector” value came to 43.8% and the Ki was found to be 3.1 µM.

`CC[C@@H](C)[C@H](N)C(=O)N1CCSC1` [H-L-allo-Ile-thiazolidide, L-allo-isoleucyl thiazolidide]: the “Improvement in transport by the peptide transporter Pep T1” value in series [2] is on record as “approximately five-fold”. Moreover, the “Glucose concentration in % L-allo-Ile-thiazolidide-treated” value in series [3] (Wistar rat (diabetes 2b-model, obese)) worked out at 73%; in series [3] (Wistar rat, normal), 82%. Also, the “Degree of action with respect to glucose modulation” value in series [3] (in comparison with L-threo-isoleucyl thiazolidide) was “approximately the same degree of action”.

On to `CC(C)C(N)C(=O)N1CCSC1` (centres unmarked) [H-Val-thiazolidide], for which, in series [1], the remaining activity at 10 µM stood at 13.6% and the Ki came out at 0.27 µM.

Take `CC[C@H](C)[C@H](N)C(=O)N1CCSC1` [L-threo-IT*F, L-threo-isoleucyl thiazolidide fumarate]: the “Wettability and decomposition in water” value in series [4] is “scarcely wettable and does not decompose”. In series [4] (visual), the “Solubility: concentration at complete dissolution” value was 2.63%.

Take `C[C@H]1O[C@H](O[C@H]2[C@H](O)[C@@H](O)[C@@H](O[C@H]3[C@H](O)[C@@H](O)C(O)O[C@@H]3CO)O[C@@H]2CO)[C@H](O)[C@@H](O)[C@@H]1N[C@H]1C=C(CO)[C@@H](O)[C@H](O)[C@H]1O` (some centres unmarked) [acarbose, reference compound]: in series [1], the remaining activity at 10 µM was found to be 100% and the Ki was > 1000 µM.

`COc1ccc(Cl)cc1C(=O)NCCc1ccc(S(=O)(=O)NC(=O)NC2CCCCC2)cc1` [glibenclamide, reference compound]: in series [1], the remaining activity at 10 µM worked out at 100% and the inhibition constant Ki was > 1000 µM.

With `CN(C)C(=N)N=C(N)N` [metformin, reference compound], in series [1], the remaining activity at 10 µM is 100% and the Ki was > 1000 µM.

Source of the values: patent US20080182798A1, “Novel effectors of dipeptidyl peptidase IV” (priority 1998, published 2008).
